Test results published in US12157741B2, “Macrocyclic inhibitors of DYRK1A” (DANA-FARBER CANCER INSTITUTE, INC., priority 2018, dated 2024).
Like-named read-outs stand apart in the source and are kept apart here.

Assays:
Type in all cases: binding
[1] = target: various enzymes (Homo sapiens, UniProt P10721, L576P)
Experimental: (§1) Ambit profiling was conducted in accordance with the manufacturer's instructions.

[2] = target: various enzymes (Homo sapiens, UniProt O15111); conditions: compound 1 uM
Experimental: as §1

[3] = target: various enzymes (Homo sapiens, UniProt Q09013); conditions: compound 1 uM
Experimental: as §1

[4] = target: various enzymes (Homo sapiens, UniProt P10721); conditions: compound 1 uM
various enzymes (Homo sapiens, UniProt P10721), sequence (P10721 26-976): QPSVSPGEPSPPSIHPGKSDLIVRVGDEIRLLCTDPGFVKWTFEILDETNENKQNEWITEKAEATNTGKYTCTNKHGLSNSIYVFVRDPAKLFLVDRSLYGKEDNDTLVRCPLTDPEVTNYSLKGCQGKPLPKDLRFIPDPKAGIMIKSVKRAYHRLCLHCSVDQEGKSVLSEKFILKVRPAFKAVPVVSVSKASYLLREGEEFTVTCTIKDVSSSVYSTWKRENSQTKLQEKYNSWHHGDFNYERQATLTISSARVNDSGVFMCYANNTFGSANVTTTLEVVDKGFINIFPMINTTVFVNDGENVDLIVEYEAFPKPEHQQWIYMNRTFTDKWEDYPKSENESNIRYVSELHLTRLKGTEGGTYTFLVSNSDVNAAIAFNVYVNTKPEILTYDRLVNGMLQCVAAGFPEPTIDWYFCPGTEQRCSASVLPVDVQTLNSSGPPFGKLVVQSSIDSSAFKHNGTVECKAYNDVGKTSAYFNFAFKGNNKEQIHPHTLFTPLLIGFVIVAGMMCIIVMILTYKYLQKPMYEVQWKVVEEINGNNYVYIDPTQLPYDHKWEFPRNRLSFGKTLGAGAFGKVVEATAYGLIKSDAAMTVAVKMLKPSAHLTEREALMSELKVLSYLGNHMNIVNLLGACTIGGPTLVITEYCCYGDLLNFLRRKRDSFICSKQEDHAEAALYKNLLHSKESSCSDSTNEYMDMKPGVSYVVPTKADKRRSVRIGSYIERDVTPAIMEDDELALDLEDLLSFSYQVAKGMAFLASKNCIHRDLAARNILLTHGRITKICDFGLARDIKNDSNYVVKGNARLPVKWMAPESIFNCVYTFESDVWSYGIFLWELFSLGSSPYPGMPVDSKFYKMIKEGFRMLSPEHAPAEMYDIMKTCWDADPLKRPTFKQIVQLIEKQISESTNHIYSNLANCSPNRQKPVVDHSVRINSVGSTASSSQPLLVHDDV
Experimental: as §1

[5] = target: various enzymes (Homo sapiens, UniProt Q04912); conditions: compound 1 uM
Experimental: as §1

[6] = target: various enzymes (Homo sapiens, UniProt Q9Y2H9); conditions: compound 1 uM
various enzymes (Homo sapiens, UniProt Q9Y2H9), sequence (Q9Y2H9 whole entry): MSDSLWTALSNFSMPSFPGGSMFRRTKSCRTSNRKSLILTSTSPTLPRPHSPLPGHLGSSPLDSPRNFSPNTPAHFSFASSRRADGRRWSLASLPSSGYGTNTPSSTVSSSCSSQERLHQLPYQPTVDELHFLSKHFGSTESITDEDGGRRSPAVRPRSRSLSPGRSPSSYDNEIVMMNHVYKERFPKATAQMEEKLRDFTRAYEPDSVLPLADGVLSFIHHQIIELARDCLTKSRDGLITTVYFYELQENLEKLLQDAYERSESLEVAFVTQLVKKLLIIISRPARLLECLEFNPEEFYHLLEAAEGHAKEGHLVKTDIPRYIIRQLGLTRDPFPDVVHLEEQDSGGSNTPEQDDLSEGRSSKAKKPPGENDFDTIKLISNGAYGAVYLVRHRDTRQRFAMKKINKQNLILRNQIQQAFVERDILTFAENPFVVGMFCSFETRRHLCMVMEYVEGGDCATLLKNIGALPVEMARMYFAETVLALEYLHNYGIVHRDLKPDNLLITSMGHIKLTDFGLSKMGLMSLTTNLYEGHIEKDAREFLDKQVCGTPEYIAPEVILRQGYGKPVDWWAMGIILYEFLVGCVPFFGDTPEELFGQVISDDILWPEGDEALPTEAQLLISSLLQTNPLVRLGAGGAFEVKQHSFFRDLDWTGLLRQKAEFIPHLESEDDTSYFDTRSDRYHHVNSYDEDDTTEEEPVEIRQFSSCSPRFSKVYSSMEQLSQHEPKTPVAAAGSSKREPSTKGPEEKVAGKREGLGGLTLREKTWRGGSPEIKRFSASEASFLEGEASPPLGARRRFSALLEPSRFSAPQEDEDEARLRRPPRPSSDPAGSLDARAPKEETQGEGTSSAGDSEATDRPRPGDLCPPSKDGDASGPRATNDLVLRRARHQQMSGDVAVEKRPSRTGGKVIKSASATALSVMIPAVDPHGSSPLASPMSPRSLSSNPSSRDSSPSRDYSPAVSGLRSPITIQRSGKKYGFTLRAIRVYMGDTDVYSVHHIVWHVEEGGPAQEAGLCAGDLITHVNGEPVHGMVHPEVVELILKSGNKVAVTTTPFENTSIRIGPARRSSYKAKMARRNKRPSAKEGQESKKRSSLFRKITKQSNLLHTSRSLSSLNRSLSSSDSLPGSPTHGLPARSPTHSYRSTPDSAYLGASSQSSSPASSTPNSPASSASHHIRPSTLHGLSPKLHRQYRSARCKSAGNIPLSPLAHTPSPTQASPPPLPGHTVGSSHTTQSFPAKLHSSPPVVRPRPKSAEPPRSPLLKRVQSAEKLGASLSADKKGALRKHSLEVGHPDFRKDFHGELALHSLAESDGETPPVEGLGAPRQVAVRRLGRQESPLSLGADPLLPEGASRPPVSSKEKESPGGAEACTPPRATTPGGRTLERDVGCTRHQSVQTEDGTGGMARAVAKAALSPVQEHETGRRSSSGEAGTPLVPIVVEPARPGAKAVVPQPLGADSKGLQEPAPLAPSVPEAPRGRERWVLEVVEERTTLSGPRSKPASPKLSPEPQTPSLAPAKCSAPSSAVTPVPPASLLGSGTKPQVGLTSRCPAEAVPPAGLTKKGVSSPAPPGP
Experimental: as §1

[7] = target: various enzymes (Homo sapiens, UniProt Q9Y2H1); conditions: compound 1 uM
Experimental: as §1

[8] = target: various enzymes (Homo sapiens, UniProt O96017); conditions: compound 1 uM
Experimental: as §1

[9] = target: various enzymes (Homo sapiens, UniProt Q14164); conditions: compound 1 uM
Experimental: as §1

[10] = target: various enzymes (Homo sapiens, UniProt Q12851); conditions: compound 1 uM
Experimental: as §1

[11] = target: various enzymes (Homo sapiens, UniProt O14920); conditions: compound 1 uM
Experimental: as §1

[12] = target: various enzymes (Homo sapiens, UniProt O75747); conditions: compound 1 uM
Experimental: as §1

[13] = target: various enzymes (Homo sapiens, UniProt P49759); conditions: compound 1 uM
various enzymes (Homo sapiens, UniProt P49759), sequence (P49759 whole entry): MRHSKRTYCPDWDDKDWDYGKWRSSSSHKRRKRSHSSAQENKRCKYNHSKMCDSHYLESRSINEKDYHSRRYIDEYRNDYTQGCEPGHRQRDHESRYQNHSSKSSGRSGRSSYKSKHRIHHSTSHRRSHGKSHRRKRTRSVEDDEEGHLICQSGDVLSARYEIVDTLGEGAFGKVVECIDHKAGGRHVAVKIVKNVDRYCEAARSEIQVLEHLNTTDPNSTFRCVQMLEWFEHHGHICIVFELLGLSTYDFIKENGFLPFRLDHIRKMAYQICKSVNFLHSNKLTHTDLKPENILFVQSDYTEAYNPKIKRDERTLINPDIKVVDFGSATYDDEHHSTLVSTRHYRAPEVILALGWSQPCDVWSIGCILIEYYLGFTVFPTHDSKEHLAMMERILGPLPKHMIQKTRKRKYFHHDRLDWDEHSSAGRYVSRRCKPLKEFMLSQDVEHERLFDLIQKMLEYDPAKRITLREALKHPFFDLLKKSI
Experimental: as §1

[14] = target: various enzymes (Homo sapiens, UniProt Q05397); conditions: compound 1 uM
Experimental: as §1

[15] = target: various enzymes (Homo sapiens, UniProt Q9H1R3); conditions: compound 1 uM
Experimental: as §1

[16] = target: various enzymes (Homo sapiens, UniProt Q9NYL2); conditions: compound 1 uM
Experimental: as §1

[17] = target: various enzymes (Homo sapiens, UniProt Q13882); conditions: compound 1 uM
Experimental: as §1

[18] = target: various enzymes (Homo sapiens, UniProt Q00537); conditions: compound 1 uM
Experimental: as §1

[19] = target: various enzymes (Homo sapiens, UniProt P52564); conditions: compound 1 uM
Experimental: as §1

[20] = target: various enzymes (Homo sapiens, UniProt O00750); conditions: compound 1 uM
Experimental: as §1

[21] = target: various enzymes (Homo sapiens, UniProt P42336, C420R)
various enzymes (Homo sapiens, UniProt P42336, C420R), sequence (P42336 whole entry C420R): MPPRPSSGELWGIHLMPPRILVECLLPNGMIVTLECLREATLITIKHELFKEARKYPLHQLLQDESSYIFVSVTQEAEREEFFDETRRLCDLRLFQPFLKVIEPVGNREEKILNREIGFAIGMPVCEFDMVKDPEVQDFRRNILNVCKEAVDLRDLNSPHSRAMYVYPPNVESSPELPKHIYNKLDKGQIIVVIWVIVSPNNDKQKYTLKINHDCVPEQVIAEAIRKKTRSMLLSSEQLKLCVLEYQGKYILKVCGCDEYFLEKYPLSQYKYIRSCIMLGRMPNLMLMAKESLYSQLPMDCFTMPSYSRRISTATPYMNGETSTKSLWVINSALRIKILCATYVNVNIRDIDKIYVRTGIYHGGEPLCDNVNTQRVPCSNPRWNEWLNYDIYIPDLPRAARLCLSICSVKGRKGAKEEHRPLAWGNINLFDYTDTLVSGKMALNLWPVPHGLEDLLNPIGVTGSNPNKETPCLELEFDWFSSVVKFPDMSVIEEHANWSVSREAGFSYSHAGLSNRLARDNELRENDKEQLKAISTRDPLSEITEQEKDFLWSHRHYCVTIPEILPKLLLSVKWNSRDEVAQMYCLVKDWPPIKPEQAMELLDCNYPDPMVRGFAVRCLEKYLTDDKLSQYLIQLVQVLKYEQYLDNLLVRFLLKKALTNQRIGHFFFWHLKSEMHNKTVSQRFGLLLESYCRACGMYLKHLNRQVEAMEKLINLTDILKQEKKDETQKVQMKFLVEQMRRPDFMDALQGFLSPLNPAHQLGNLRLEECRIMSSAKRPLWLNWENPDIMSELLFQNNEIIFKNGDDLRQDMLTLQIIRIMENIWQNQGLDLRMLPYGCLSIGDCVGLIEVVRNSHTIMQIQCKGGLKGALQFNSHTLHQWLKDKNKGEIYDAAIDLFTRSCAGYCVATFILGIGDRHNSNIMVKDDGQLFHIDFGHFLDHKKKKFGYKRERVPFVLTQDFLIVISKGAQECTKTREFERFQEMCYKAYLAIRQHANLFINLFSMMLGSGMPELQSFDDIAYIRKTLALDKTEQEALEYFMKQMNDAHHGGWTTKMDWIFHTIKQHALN
Experimental: as §1

[22] = target: various enzymes (Homo sapiens, UniProt P42336, E545K)
various enzymes (Homo sapiens, UniProt P42336, E545K), sequence (P42336 whole entry E545K): as the sequence (P42336 whole entry C420R) above, with R420C, E545K counted along it
Experimental: as §1

[23] = target: various enzymes (Homo sapiens, UniProt O00238); conditions: compound 1 uM
Experimental: as §1

[24] = target: various enzymes (Homo sapiens, UniProt Q16832); conditions: compound 1 uM
Experimental: as §1

[25] = target: various enzymes (Homo sapiens, UniProt P16591); conditions: compound 1 uM
Experimental: as §1

[26] = target: T1, various enzymes (Homo sapiens, UniProt Q13873); conditions: compound 1 uM
T1 sequence (Q13873 27-1038): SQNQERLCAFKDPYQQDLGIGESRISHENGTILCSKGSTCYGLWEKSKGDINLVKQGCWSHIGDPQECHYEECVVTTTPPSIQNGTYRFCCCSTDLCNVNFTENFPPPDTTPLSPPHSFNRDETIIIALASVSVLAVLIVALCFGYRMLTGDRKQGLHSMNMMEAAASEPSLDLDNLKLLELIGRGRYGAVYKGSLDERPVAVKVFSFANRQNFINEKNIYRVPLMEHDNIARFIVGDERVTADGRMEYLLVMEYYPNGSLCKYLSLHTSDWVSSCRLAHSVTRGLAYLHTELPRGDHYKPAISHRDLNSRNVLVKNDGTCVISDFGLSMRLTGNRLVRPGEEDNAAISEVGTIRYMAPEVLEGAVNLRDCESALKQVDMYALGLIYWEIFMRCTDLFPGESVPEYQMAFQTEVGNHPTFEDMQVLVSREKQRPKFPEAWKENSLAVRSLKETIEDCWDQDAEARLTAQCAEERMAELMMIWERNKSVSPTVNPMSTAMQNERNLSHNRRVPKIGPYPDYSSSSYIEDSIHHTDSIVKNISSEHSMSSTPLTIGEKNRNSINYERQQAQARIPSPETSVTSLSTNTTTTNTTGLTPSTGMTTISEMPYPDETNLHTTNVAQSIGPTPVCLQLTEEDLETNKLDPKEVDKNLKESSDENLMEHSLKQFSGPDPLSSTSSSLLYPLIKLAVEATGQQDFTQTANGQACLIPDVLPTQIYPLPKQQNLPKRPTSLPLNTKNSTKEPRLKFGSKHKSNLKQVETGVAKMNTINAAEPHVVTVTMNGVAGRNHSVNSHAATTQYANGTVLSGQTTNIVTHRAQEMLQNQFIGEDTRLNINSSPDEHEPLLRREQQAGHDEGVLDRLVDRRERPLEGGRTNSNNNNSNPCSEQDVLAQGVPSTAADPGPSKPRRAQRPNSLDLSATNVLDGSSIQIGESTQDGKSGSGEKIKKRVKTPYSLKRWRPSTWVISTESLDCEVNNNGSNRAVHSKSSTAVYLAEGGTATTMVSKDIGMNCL
Experimental: as §1

[27] = target: various enzymes (Homo sapiens, UniProt Q8NE63); conditions: compound 1 uM
Experimental: as §1

[28] = target: various enzymes (Homo sapiens, UniProt Q7KZI7); conditions: compound 1 uM
Experimental: as §1

[29] = target: various enzymes (Homo sapiens, UniProt P31749); conditions: compound 1 uM
Experimental: as §1

[30] = target: various enzymes (Mycobacterium tuberculosis, UniProt P9WI81); conditions: compound 1 uM
various enzymes (Mycobacterium tuberculosis, UniProt P9WI81), sequence (P9WI81 whole entry): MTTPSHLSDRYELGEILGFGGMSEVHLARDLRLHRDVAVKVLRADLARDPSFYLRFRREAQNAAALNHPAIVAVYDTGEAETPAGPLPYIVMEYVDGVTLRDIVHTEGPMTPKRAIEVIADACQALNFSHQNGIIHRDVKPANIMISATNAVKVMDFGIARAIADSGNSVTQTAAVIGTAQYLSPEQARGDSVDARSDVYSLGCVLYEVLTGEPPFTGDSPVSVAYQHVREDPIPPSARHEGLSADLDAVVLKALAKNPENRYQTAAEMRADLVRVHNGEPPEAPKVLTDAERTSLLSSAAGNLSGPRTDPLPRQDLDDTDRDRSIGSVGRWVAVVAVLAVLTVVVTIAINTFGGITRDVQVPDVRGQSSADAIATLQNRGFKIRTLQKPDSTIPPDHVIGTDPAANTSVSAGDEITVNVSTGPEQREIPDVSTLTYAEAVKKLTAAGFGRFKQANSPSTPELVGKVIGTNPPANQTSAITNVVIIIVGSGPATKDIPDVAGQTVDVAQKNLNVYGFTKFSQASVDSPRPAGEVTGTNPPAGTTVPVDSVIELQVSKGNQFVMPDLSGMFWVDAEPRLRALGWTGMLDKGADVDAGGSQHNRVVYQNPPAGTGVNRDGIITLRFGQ
Experimental: as §1

various enzymes (Homo sapiens, UniProt P10721, L576P), sequence (P10721 26-976 L576P): as the sequence (P10721 26-976) above, with L551P counted along it

Structure (SMILES): CC(C)N1Cc2nn(C)cc2-c2cnc3[nH]cc(c3c2)-c2cn(nc2C(F)(F)F)CCCC1=O [Compound 45, (Z)-5-isopropyl-31-methyl-13-(trifluoromethyl)-11H,21H,31H-5-aza-2(3,5)-pyrrolo[2,3-b]pyridina-1(4,1),3(4,3)-dipyrazolacyclononaphan-6-one]
- Ambit profiling: KIT(L576P) ([1]; compound 1 uM): 4.5
- Ambit profiling: IKK-alpha [2]: 100
- Ambit profiling: DMPK [3]: 20
- Ambit profiling: KIT [4]: 6.5
- Ambit profiling: KIT-autoinhibited [4]: 69
- Ambit profiling: MST1R [5]: 70
- Ambit profiling: MAST1 [6]: 22
- Ambit profiling: NDR2 [7]: 92
- Ambit profiling: CHEK2 [8]: 82
- Ambit profiling: IKK-epsilon [9]: 40
- Ambit profiling: MAP4K2 [10]: 3.9
- Ambit profiling: IKK-beta [11]: 100
- Ambit profiling: PIK3C2G [12]: 97
- Ambit profiling: CLK1 [13]: 9.9
- Ambit profiling: FAK [14]: 20
- Ambit profiling: MYLK2 [15]: 29
- Ambit profiling: ZAK [16]: 45
- Ambit profiling: BRK [17]: 100
- Ambit profiling: PCTK2 [18]: 19
- Ambit profiling: MEK6 [19]: 15
- Ambit profiling: PIK3C2B [20]: 92
- Ambit profiling: PIK3CA(C420R) ([21]; compound 1 uM): 100
- Ambit profiling: PIK3CA(E545K) ([22]; compound 1 uM): 51
- Ambit profiling: BMPR1B [23]: 6.8
- Ambit profiling: DDR2 [24]: 13
- Ambit profiling: FER [25]: 49
- Ambit profiling: BMPR2 [26]: 78
- Ambit profiling: HIPK4 [27]: 2.1
- Ambit profiling: MARK2 [28]: 48
- Ambit profiling: AKT1 [29]: 100
- Ambit profiling: PKNB(M. tuberculosis) [30]: 7

Structure (SMILES): COc1c2c(nn1C)CN(C(C)C)C(=O)CCCn1cc(c(C(F)(F)F)n1)-c1c[nH]c3ncc-2cc13 [Compound 50, (Z)-5-isopropyl-35-methoxy-31-methyl-13-(trifluoromethyl)-11H,21H,31H-5-aza-2(3,5)-pyrrolo[2,3-b]pyridina-1(4,1),3(4,3)-dipyrazolacyclononaphan-6-one]
- Ambit profiling: KIT(L576P) [1]: 4
- Ambit profiling: IKK-alpha [2]: 83
- Ambit profiling: DMPK [3]: 100
- Ambit profiling: KIT [4]: 2.9
- Ambit profiling: KIT-autoinhibited [4]: 76
- Ambit profiling: MST1R [5]: 42
- Ambit profiling: MAST1 [6]: 40
- Ambit profiling: NDR2 [7]: 78
- Ambit profiling: CHEK2 [8]: 80
- Ambit profiling: IKK-epsilon [9]: 19
- Ambit profiling: MAP4K2 [10]: 44
- Ambit profiling: IKK-beta [11]: 87
- Ambit profiling: PIK3C2G [12]: 58
- Ambit profiling: CLK1 [13]: 18
- Ambit profiling: FAK [14]: 5.3
- Ambit profiling: MYLK2 [15]: 39
- Ambit profiling: ZAK [16]: 58
- Ambit profiling: BRK [17]: 80
- Ambit profiling: PCTK2 [18]: 56
- Ambit profiling: MEK6 [19]: 45
- Ambit profiling: PIK3C2B [20]: 100
- Ambit profiling: PIK3CA(C420R) [21]: 91
- Ambit profiling: PIK3CA(E545K) [22]: 74
- Ambit profiling: BMPR1B [23]: 5.1
- Ambit profiling: DDR2 [24]: 32
- Ambit profiling: FER [25]: 10
- Ambit profiling: BMPR2 [26]: 89
- Ambit profiling: HIPK4 [27]: 1.5
- Ambit profiling: MARK2 [28]: 100
- Ambit profiling: AKT1 [29]: 100
- Ambit profiling: PKNB(M. tuberculosis) [30]: 36
